In patent US20230285497A1, “ATOPIC […] WITH KAPPA OPIOID RECEPTOR AGONIST AS ADJUNCT TO TOPICAL CORTICOSTEROID” (Cara Therapeutics, Inc., priority 2022, published 2023):

Key:
Solubility in water = assay type: physicochemical; details: acetate salt
[1] = system: subjects with atopic dermatitis; experiment: Phase 2 study, tolerability and Treatment Emergent Adverse Events; assay type: in vivo, human
Description: Oral Difelikefalin 0.25 mg, 0.5 mg, 1.0 mg, or placebo was administered twice daily (BID) in subjects with atopic dermatitis (baseline validated Investigator's Global Assessment scale for AD: vIGA-ADTM≥2 and body surface area [BSA]≤30%) and moderate-to-severe AD-related pruritus (mean baseline Itch Numerical Rating Scale [I-NRS, 0-10 scale] score ≥5.0). The primary and key secondary endpoints were the change from baseline in the weekly mean of the daily I-NRS score at Week 12, and the proportion of subjects achieving at least a 4-point improvement from baseline in I-NRS score at Week 12, respectively.
There were no deaths in the study. Abdominal pain was the most common TEAE leading to study drug discontinuation in the 1.0 mg dose group (6.5%), compared to placebo (1.6%), 0.25 mg (0%) and 0.5 mg (0%) dose groups.

| SMILES | solubility in water (Solubility in water) | abdominal pain TEAE leading to study drug discontinuation ([1]; 0.25 mg dose group) | abdominal pain TEAE leading to study drug discontinuation ([1]; 0.5 mg dose group) | abdominal pain TEAE leading to study drug discontinuation ([1]; 1.0 mg dose group) | deaths in the study ([1]; in vivo) | severity of the majority of reported TEAEs ([1]; in vivo) | overall tolerability ([1]; oral, twice daily, 12-week Treatment Period) | most common Treatment Emergent Adverse Events (TEAEs) ([1]; ≥5% in any dose group) |
| --- | --- | --- | --- | --- | --- | --- | --- | --- |
| CC(=O)O.CC(C)C[C@@H](NC(=O)[C@@H](Cc1ccccc1)NC(=O)[C@H](N)Cc1ccccc1)C(=O)N[C@H](CCCCN)C(=O)N1CCC(N)(C(=O)O)CC1 [Difelikefalin acetate, 4-amino-1-(D-phenylalanyl-D-phenylalanyl-D-leucyl-D-lysyl)piperidine-4-carboxylic acid, acetate salt] | soluble in water |  |  |  |  |  |  |  |
| CC(C)C[C@@H](NC(=O)[C@@H](Cc1ccccc1)NC(=O)[C@H](N)Cc1ccccc1)C(=O)N[C@H](CCCCN)C(=O)N1CCC(N)(C(=O)O)CC1 [Difelikefalin] |  | 0% | 0% | 6.5% | no deaths | mild or moderate | generally well-tolerated | abdominal pain, nausea, dry mouth, headache, dizziness and hypertension |
